# Test results taken from patent US11453640B2, “Small molecules for disrupting the super elongation complex and inhibiting transcription elongation for cancer therapy” (NORTHWESTERN UNIVERSITY, priority 2018, dated 2022).
# Tested on: Pol II
# Assay: 4sU-FP-seq measurement of Pol II transcription elongation rate in HEK293T cells
# Type: cell-based, human
# Settings: 20 μM pretreatment 5 hr, HMM analysis, 982 genes
# Experimental: FIG. 4. Small molecule disruption of SEC slows Pol II elongation rates. (A) Workflow of 4sU-FP-seq based measurement of the transcription elongation rate of RNA Pol II. HEK293T cells were pretreated with vehicle or 20 μM SEC inhibitors for 5 hr before addition of the CDK9 inhibitor flavopiridol for 1 hr to arrest Pol II at the promoter-proximal pause site. Inhibitors are washed out with PBS before allowing transcription to proceed in the presence of with fresh medium containing 500 μM 4-Thiouridine (4sU) for 15 min. The 4sU-labeled RNA is then extracted and fragmented before purification, and followed with RNA-seq. (B) Genome browser tracks of 4sU-FP-seq for vehicle and SEC inhibitor-treated cells at the ACTN2 and MTR loci. […] (C) Heatmap analysis of 4sU-FP-seq in vehicle and the indicated SEC inhibitors in HEK293T cells. All genes longer than 50 kb (N=5,568) were plotted and ordered using the total 4sU-FP-seq signals in the vehicle-treated cells. (D) Metaplot of strand-specific 4sU-FP-seq signals in vehicle and SEC inhibitors-treated cells. […] Raw changes in 4sU-FP-seq read counts in non-overlapping 50 bp windows used to infer elongation rates for the MTR gene. […] (F-G) Histograms (F) and boxplots (G) comparing the transcription elongation rates for 982 genes in HEK293T cells for which high confidence elongation rates could be determined. […]
compound,measurement,value
"COc1cccc(C(=O)CC(=O)C(=O)Nc2cc(Cl)ccc2C)c1 [KL-1, N-(5-chloro-2-methylphenyl)-4-oxo-4-(3-methoxyphenyl)-2-oxobutanamide]",elongation rate of Pol II,decreased the elongation rate of Pol II
